pIC50: −log10 of the molar value.
Key:
NPY Y2 receptor = target: T1, NPY Y2 receptor (Homo sapiens, UniProt P49146); test: Binding test to the NPY Y2 receptor ([125I]-PYY, KAN.TS cell suspension)
T1 construct: host or cells: KAN.TS cells (whole-cell suspension)
T1 sequence (P49146 1-381): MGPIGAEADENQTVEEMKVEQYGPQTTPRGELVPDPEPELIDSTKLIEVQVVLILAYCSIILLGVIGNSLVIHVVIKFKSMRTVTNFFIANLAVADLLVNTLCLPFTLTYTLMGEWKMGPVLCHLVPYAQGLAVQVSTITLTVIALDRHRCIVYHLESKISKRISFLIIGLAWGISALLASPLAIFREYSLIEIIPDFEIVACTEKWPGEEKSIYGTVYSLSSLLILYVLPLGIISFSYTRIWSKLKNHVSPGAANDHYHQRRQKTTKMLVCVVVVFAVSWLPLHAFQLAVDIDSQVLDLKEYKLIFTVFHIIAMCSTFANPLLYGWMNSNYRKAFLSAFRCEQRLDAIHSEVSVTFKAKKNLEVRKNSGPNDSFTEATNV
Description: The KAN.TS cells (Amersham RPNQ0081) are cultured at 37° C. in DMEM Glutamax medium (Life Technology ref. 61965026) containing 15% foetal calf serum (Invitrogen), 1% L-Glutamine (Invitrogen ref.250300-032), 50 IU/ml penicillin and 50 μg/ml of streptomycin (Invitrogen ref. 15070022) in a humid atmosphere containing 5% CO2.
After aspirating the culture medium, the cells are washed with phosphate buffer pH 7.4 (Sigma ref. D5652), then lifted with a solution of PBS^−, 0.5 mM EDTA (ethylenediaminetetraacetic acid) (Sigma ref ED 2SS). […] The cells are counted and centrifuged at 1500 rpm for 10 min then resuspended in the freeze buffer and aliquoted into ten million cells per millilitre of freeze buffer, and stored at −70° C.
The cell suspension with 25000 cells/ml is incubated 1 h at 37° C. in an incubation buffer pH 7.4 containing 50 mM HEPES/NaOH, 2.5 mM calcium chloride, 1 mM magnesium chloride, 0.025% sodium azide, 1 mg/ml bovine albumin and 15 pM of [^125I]-PYY (Perkin Elmer, NEX341). […] The radioactivity deposited on the filter is measured by liquid scintillation count (TopCount, Packard). Non-specific binding is determined in the presence of 1 μM NPY (Bachem, H3322). […]

NPY Y1 receptor = target: T2, NPY Y1 receptor (Homo sapiens, UniProt P25929); test: Binding test to the NPY Y1 receptor ([125I]-PYY, SK-N-MC cell suspension); conditions: SK-N-MC cells, 25 pM [125I]-PYY
T2 construct: host or cells: SK-N-MC cells (whole-cell suspension)
T2 sequence (P25929 1-384): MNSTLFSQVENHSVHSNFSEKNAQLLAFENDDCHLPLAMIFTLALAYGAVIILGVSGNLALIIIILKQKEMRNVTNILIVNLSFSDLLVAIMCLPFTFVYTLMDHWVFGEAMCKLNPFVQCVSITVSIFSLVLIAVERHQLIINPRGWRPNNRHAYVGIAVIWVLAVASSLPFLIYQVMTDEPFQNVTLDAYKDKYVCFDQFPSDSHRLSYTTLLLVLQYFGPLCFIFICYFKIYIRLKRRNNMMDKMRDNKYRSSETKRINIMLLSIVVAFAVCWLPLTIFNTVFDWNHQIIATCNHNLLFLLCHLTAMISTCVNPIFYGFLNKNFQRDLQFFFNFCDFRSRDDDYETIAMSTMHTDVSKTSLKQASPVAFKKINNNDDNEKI
Description: The SK-N-MC cells (ATCC HBT10) are cultured at 37° C. in MEM medium (minimum essential medium) free of phenol red (Invitrogen ref. 04194565M) containing 10% foetal calf serum (Invitrogen ref. 10270-106), 1% non-essential aminoacids (Invitrogen ref. 11140-035), 1% sodium pyruvate (Invitrogen ref. 11360-039), 1% glutamine (Invitrogen ref. 25030-032), 100 IU/ml of penicillin and 100 μg/ml of streptomycin (Invitrogen ref. 15140-122) in a humid atmosphere containing 5% CO2.
After aspirating the culture medium, the cells are washed with a phosphate buffer pH 7.4 (Invitrogen ref. 14190-094), then lifted with a Versene solution (Invitrogen, ref 15040-033). The cells are centrifuged at 500×g for 10 minutes at 4° C. then resuspended in a freeze buffer pH 7.4 containing 50 mM HEPES (N-2-hydroxyethylpiperazine-N′-2-ethanesulfonic acid), 145 mM sodium chloride, 2.6 mM calcium chloride, 1 mM magnesium chloride, 10 mM glucose, and 1 mg/ml bovine albumin. The cell suspension is aliquoted into twenty million cells per milliliter of buffer and stored at −70° C.
The cell suspension is incubated 2 hours at 37° C. in an incubation buffer pH 7.4 containing 50 mM HEPES, 2.5 mM calcium chloride, 1 mM magnesium chloride, 0.025% sodium azide, 1 mg/ml bovine albumin and 25 pM [^125I]-PYY (Perkin Elmer, NEX341). The reaction is halted by filtering through a GF/B filter pre-treated with 0.3% PEI, and washed three times with 1 ml of 50 mM TRIS buffer [tris(hydroxymethyl)aminomethane]/HCl, pH 7.4. The radioactivity deposited on the filter is measured by liquid scintillation count (TopCount, Packard). Non-specific binding is determined in the presence of 1 μM NPY (Bachem, H3322). Results are expressed as IC50 values in nM calculated by non-linear regression with 4 parameters.

IC50 (NPY Y2 receptor; KAN.TS cells, [125I]-PYY): > 10000 nM
inhibition at 10 µM (NPY Y2 receptor; inhibition of specific binding at 10 μM of compound, read-out: % Inh at 10 μM Y2): 10%
pIC50 (NPY Y1 receptor): 8.74
Structure (SMILES): CCCCN1CCC(Oc2ccc(C(=O)Nc3ccc(Oc4ccc(NC(=O)NC(CC)CC)cc4OC)cc3)cc2)CC1 [Example 103, 4-(1-Butyl-piperidin-4-yloxy)-N-(4-{4-[3-(1-ethyl-propyl)-ureido]-2-methoxy-phenoxy}-phenyl)-benzamide]

Reference: patent US20090233910A1, “Npy antagonists, preparation and uses” (CEREP, priority 2005, published 2009)
